Data reported in ChEMBL document CHEMBL1201862, “PubChem BioAssay data set” (2004).
Active and inactive are the calls of the source. No stated cut-off is given here; in the data, actives have a measured IC50 and inactives only a lower limit.

Target: Envelope glycoprotein gp160 (Human immunodeficiency virus 1, UniProt Q6QLK5)
Assay: cell-free HIV fusion peptide-binding blockers – biochemical, uHTS, fluorescence dequenching, […] (AID 1986)

Chain of Envelope glycoprotein gp160 (Q6QLK5 whole entry, the tested form may be a part): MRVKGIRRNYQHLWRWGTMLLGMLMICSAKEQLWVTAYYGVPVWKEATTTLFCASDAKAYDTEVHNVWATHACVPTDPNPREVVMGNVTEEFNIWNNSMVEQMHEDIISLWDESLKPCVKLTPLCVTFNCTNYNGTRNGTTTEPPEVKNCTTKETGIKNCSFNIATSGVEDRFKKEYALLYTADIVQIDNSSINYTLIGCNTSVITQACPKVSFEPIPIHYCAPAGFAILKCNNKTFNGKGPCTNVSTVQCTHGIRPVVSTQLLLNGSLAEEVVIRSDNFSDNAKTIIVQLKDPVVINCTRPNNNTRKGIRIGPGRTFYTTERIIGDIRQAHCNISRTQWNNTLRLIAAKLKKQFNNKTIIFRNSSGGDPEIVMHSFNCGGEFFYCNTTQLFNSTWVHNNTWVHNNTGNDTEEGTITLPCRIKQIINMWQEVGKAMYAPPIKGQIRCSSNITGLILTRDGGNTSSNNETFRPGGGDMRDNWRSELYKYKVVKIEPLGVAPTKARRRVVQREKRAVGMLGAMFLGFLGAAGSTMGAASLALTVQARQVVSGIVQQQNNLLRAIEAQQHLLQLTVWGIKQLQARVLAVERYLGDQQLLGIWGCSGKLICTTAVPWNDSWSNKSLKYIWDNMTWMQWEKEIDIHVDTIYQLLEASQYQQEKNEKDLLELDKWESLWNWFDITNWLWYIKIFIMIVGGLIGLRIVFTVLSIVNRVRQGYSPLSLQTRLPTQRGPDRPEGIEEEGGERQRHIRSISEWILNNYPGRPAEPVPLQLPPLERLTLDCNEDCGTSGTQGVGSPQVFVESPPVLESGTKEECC

**Q.** For O=C(OCC1OC(n2ncc(=O)[nH]c2=O)C(OC(=O)c2ccccc2)C1OC(=O)c1ccccc1)c1ccccc1 (stereo unspecified), which IC50 is on record?
**A.** 23.8 µM (active)
